Measured values as given in article PMC6979384, “Characterization of the plant homeodomain (PHD) reader family for their histone tail interactions” (Epigenetics & Chromatin, 2020).

Legend:
Assay in all cases: Histone peptide microarray
Assay type in all cases: binding, human
BAZ2B = details: GST-tagged BAZ2B; sheet Array Heatmap; each array performed twice, total n = 4
Method in brief: (§1)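 Binding of recombinant GST-fused PHD readers (0.5 μM) is detected on an array of 293 histone peptides, modified singly or in combination. An optimized array protocol is followed, and each intensity is the average of quadruplicate measurements with standard deviation.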

CHD4 (PPCC) = details: for Array Heatmap signal (histone peptide microarray): GST-tagged CHD4 (PPCC = Dual PHD + Dual Chromodomain), sheet Array Heatmap, each array performed twice, total n = 4
Method in brief: as §1

CHD5 (PCC) = details: GST-tagged CHD5 (PCC = PHD + Dual Chromodomain); sheet Array Heatmap; each array performed twice, total n = 4
Method in brief: as §1

CHD5 (PPCC) = details: GST-tagged CHD5 (PPCC = Dual PHD + Dual Chromodomain); sheet Array Heatmap; each array performed twice, total n = 4
Method in brief: as §1

DPF2 (PPC2W2) = details: GST-tagged DPF2 (PPC2W2 = Dual PHD + C2W2-type Zn-finger); sheet Array Heatmap; each array performed twice, total n = 4
Method in brief: as §1

ING1 = details: GST-tagged ING1; sheet Array Heatmap; each array performed twice, total n = 4
Method in brief: as §1

ING2 = details: GST-tagged ING2; sheet Array Heatmap; each array performed twice, total n = 4
Method in brief: as §1

ING3 = details: GST-tagged ING3; sheet Array Heatmap; each array performed twice, total n = 4
Method in brief: as §1

ING4 = details: GST-tagged ING4; sheet Array Heatmap; each array performed twice, total n = 4
Method in brief: as §1

ING5 = details: GST-tagged ING5; sheet Array Heatmap; each array performed twice, total n = 4
Method in brief: as §1

KDM4C (TTP) = details: GST-tagged KDM4C (TTP = Tandem Tudor domain + PHD); sheet Array Heatmap; each array performed twice, total n = 4
Method in brief: as §1

KDM5A (1) = details: GST-tagged KDM5A (1); sheet Array Heatmap; each array performed twice, total n = 4
Method in brief: as §1

KDM5B (1) = details: GST-tagged KDM5B (1); sheet Array Heatmap; each array performed twice, total n = 4
Method in brief: as §1

KDM5B (3) = details: GST-tagged KDM5B (3); sheet Array Heatmap; each array performed twice, total n = 4
Method in brief: as §1

KDM7A = details: GST-tagged KDM7A; sheet Array Heatmap; each array performed twice, total n = 4
Method in brief: as §1

MLL5 = details: GST-tagged MLL5; sheet Array Heatmap; each array performed twice, total n = 4
Method in brief: as §1

MORC3 (CW) = details: GST-tagged MORC3 (CW = CW-type Zn-finger); sheet Array Heatmap; each array performed twice, total n = 4
Method in brief: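 Steps: express and purify GST-tagged PHD reader; incubate 0.5 μM protein on a peptide microarray (293 histone peptides, single or combined PTMs) following an optimized protocol; average signal across 4 replicates.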

PHF13 = details: GST-tagged PHF13; sheet Array Heatmap; each array performed twice, total n = 4
Method in brief: as §1

PHF21A = details: GST-tagged PHF21A; sheet Array Heatmap; each array performed twice, total n = 4
Method in brief: as §1

PHF23 = details: GST-tagged PHF23; sheet Array Heatmap; each array performed twice, total n = 4
Method in brief: as §1

PHF2 = details: GST-tagged PHF2; sheet Array Heatmap; each array performed twice, total n = 4
Method in brief: as §1

PHF8 = details: GST-tagged PHF8; sheet Array Heatmap; each array performed twice, total n = 4
Method in brief: as §1

PHRF1 (RP) = details: GST-tagged PHRF1 (RP); sheet Array Heatmap; each array performed twice, total n = 4
Method in brief: as §1

RAG2 = details: GST-tagged RAG2; sheet Array Heatmap; each array performed twice, total n = 4
Method in brief: as §1

SP140L = details: GST-tagged SP140L; sheet Array Heatmap; each array performed twice, total n = 4
Method in brief: as §1

TRIM66 (PB) = details: GST-tagged TRIM66 (PB = PHD + Bromodomain); sheet Array Heatmap; each array performed twice, total n = 4
Method in brief: as §1

Substance | Array Heatmap signal (histone peptide microarray) (BAZ2B) | Array Heatmap signal (histone peptide microarray) (CHD4 (PPCC)) | Array Heatmap signal (histone peptide microarray) (CHD5 (PCC)) | Array Heatmap signal (histone peptide microarray) (CHD5 (PPCC)) | Array Heatmap signal (histone peptide microarray) (DPF2 (PPC2W2)) | Array Heatmap signal (histone peptide microarray) (ING1) | Array Heatmap signal (histone peptide microarray) (ING2) | Array Heatmap signal (histone peptide microarray) (ING3) | Array Heatmap signal (histone peptide microarray) (ING4) | Array Heatmap signal (histone peptide microarray) (ING5) | Array Heatmap signal (histone peptide microarray) (KDM4C (TTP)) | Array Heatmap signal (histone peptide microarray) (KDM5A (1)) | Array Heatmap signal (histone peptide microarray) (KDM5B (1)) | Array Heatmap signal (histone peptide microarray) (KDM5B (3)) | Array Heatmap signal (histone peptide microarray) (KDM7A) | Array Heatmap signal (histone peptide microarray) (MLL5) | Array Heatmap signal (histone peptide microarray) (MORC3 (CW)) | Array Heatmap signal (histone peptide microarray) (PHF13) | Array Heatmap signal (histone peptide microarray) (PHF21A) | Array Heatmap signal (histone peptide microarray) (PHF23) | also measured
H3K9me3: H3 1-20 [Peptide H3K9me3] | 0.4699 | 0.5917 | 0.824 | 0.5526 | 0.7027 | 0.5591 | 0.5901 | 0.491 | 0.4493 | 0.3535 | 0.4665 | 0.4576 | 0.6712 | 0.5156 | 0.3458 | 0.5674 | 0.4553 | 0.6291 | 0.4617 | 0.5665 | relative binding (CHD4 (PPCC); peptide microarray, reader 0.5 μM, n = 4): no difference in binding; Array Heatmap signal (histone peptide microarray) (PHF2): 0.5168; Array Heatmap signal (histone peptide microarray) (PHF8): 0.3233; Array Heatmap signal (histone peptide microarray) (PHRF1 (RP)): 0.7596; Array Heatmap signal (histone peptide microarray) (RAG2): 0.2542; Array Heatmap signal (histone peptide microarray) (SP140L): 0.3305; Array Heatmap signal (histone peptide microarray) (TRIM66 (PB)): 0.7052
H3S10p: H3 1-20 [Peptide H3S10p] | 0.5109 | 0.6003 | 0.8638 | 0.5995 | 0.7013 | 0.5325 | 0.606 | 0.4878 | 0.4889 | 0.3966 | 0.5402 | 0.5146 | 0.6981 | 0.5217 | 0.4084 | 0.5416 | 0.4872 | 0.646 | 0.5054 | 0.5413 | Array Heatmap signal (histone peptide microarray) (PHF2): 0.4863; Array Heatmap signal (histone peptide microarray) (PHF8): 0.4129; Array Heatmap signal (histone peptide microarray) (PHRF1 (RP)): 0.5714; Array Heatmap signal (histone peptide microarray) (RAG2): 0.2741; Array Heatmap signal (histone peptide microarray) (SP140L): 0.3768; Array Heatmap signal (histone peptide microarray) (TRIM66 (PB)): 0.7641
